From US20250115578A1, “AROMATIC FUSED RING NAV1.8 INHIBITOR, AND USE THEREOF” (CHENGDU KANGHONG PHARMACEUTICAL CO., LTD., priority 2022, published 2025)

Biological target: hNav1.8 (Homo sapiens (Human), UniProt Q9Y5Y9)
Assay: Manual patch clamp, Method 1 (CHO cell line stably expressing hNav1.8)
Type: cell-based
Settings: Method 1, CHO-hNav1.8, read-out: Inhibition rate of hNav1.8; for inhibition at 0.01 µM: 10 nM; for inhibition at 0.1 µM: 100 nM
Source text: The patch clamp technique is known as the “gold standard” for studying ion channels, and it uses glass microelectrodes to seal the cell membrane to measure the currents of various membrane channel. […] Patch clamp technology can evaluate the inhibition strength of different compounds on different states of Navs by measuring the changes of membrane channel currents after different compounds bind to different states of Navs.
The representative compounds of the present invention used stable CHO or HEK293 cell lines transfected with specific ion channels to measure the effect of the compounds on Nav1.8 currents by manual patch clamp test, to evaluate their inhibition strength.
The assay protocol of manual patch clamp is as follows:
CHO cell lines with stable expression of hNav1.8 were cultured in F12 medium containing 10% fetal bovine serum at a constant temperature of 37° C., and the carbon dioxide concentration was maintained at 5%. The old culture medium was removed and washed once with PBS, then 1 mL 0.25%-Trypsin-EDTA solution was added and incubated at 37° C. for 1 min. When the cells were detached from the bottom of the dish, 5 mL of the complete medium preheated at 37° C. was added, and the aggregated cells were separated by gently blowing with a straw. The cell suspension was transferred into a sterile centrifuge tube and centrifuged at 1000 rpm for 5 min to collect cells. The cells were then inoculated into a cell culture dish with a diameter of 6 cm (2.5×10^5 cells/petri dish, 5 mL medium) for expansion or maintenance.
In order to maintain the electrophysiological activity of the cells, the cell density must be less than 80%.
The cells were separated with 0.25%-Trypsin-EDTA before the assay, and 5×10^3 cells were seeded on a cover slip and cultured in a 24-well plate (final volume: 500 μL) for 18 h. Then the assay was conducted.
The compounds prepared in the examples of the present invention were dissolved in dimethyl sulfoxide (DMSO) and prepared into DMSO stock solution with a concentration of 10 mM for assay. And it was diluted to various concentrations with extracellular solution (140 mM NaCl, 3.5 mM KCl, 1 mM MgCl2, 2 mM CaCl2), 10 mM Glucose, 10 mM HEPES, 1.25 mM NaH2PO4, pH=7.4 regulated by NaOH), and the final concentration of DMSO in each compound sample was 0.10% or less.
A capillary glass pipette (BF150-86-10, Sutter Instruments) was pulled into a recording electrode with a micropipette puller (P97, Sutter Instruments). The micromanipulator (MP285, Sutter Instruments) was manipulated under an inverted microscope (IX71, Olympus) to make the recording electrode contact the cell and negative pressure suction was applied to achieve a GQ seal. Then, rapid capacitance compensation was performed, and negative pressure was continued, cell membrane was broken by suction, and whole cell recording mode was formed. Then the slow capacitance was compensated and the membrane capacitance and series resistance were recorded without leakage compensation. When the whole cell recording current was stabilized, dosing was initiated, and the next concentration was detected after acting 5 minutes of each drug concentration. Multiple cells were independently repeated during the recording period. All electrophysiological assays were performed at room temperature. Specifically, 6 concentrations (measuring IC50) or 2 concentrations (preliminary screening) were set for each compound, and the percentage of inhibition of sodium channels was determined by calculating the relative percentage of peak current generated before and after each concentration compound treated cells, and the IC50 value or percentage of inhibition at a specific concentration was calculated using IGOR pro software.

Chain of hNav1.8 (Q9Y5Y9 whole entry): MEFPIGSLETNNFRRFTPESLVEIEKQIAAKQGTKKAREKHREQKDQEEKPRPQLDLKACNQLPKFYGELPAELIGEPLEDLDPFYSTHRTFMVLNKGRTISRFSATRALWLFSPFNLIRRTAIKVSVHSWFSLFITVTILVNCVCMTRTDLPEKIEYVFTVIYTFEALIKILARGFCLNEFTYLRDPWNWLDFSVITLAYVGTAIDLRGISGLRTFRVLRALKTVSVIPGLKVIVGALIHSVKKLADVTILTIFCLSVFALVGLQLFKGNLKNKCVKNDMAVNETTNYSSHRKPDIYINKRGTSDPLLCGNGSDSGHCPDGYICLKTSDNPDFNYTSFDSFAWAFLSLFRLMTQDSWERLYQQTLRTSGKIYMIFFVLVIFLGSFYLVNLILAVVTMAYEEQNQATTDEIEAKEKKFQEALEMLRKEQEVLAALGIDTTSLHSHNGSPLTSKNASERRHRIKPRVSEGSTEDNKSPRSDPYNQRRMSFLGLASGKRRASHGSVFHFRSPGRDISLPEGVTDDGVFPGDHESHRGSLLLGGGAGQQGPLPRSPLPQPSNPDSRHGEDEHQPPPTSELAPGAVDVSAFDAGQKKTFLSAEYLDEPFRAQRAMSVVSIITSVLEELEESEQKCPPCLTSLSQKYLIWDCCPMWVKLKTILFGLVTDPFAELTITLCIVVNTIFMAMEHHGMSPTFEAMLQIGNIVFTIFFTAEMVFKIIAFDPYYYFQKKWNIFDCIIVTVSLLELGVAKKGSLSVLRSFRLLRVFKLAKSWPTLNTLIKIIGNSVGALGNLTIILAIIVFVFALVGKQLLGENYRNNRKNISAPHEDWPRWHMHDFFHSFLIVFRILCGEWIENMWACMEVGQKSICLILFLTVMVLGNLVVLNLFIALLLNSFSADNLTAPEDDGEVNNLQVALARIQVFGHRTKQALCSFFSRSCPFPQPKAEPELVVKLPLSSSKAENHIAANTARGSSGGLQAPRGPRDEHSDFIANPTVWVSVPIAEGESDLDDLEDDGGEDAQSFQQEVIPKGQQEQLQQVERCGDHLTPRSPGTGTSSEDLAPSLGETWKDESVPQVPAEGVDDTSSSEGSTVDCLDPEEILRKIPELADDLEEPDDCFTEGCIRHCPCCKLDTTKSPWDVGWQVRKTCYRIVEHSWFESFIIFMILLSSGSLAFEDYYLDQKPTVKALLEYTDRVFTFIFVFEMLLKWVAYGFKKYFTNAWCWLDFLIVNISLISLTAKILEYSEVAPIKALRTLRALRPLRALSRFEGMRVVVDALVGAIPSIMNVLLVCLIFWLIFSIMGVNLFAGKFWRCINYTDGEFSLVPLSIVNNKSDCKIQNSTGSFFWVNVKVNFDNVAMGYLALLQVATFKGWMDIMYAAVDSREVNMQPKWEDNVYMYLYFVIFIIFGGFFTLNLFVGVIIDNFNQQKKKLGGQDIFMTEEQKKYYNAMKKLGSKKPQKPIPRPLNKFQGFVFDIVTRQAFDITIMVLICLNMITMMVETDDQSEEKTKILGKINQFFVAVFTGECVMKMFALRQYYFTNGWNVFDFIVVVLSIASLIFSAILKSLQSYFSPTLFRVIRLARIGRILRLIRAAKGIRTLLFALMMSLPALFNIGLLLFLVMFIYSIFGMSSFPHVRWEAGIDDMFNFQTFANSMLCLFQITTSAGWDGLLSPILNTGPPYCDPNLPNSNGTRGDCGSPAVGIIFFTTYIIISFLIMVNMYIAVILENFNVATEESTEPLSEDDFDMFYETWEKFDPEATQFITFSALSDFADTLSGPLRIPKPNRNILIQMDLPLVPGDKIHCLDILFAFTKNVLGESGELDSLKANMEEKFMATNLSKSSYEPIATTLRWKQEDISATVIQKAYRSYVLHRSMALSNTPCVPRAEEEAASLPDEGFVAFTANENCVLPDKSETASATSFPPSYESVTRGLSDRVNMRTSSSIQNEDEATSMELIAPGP

SMILES | inhibition at 0.01 µM | inhibition at 0.1 µM
COc1ccc2cc(C(=O)Nc3ccnc(C(N)=O)c3)c(N3CCCC(F)(F)CC3)nc2c1 [Example 22, N-(2-carbamoylpyridin-4-yl)-2-(4,4-difluoroazepan-1-yl)-7-methoxyquinoline-3-carboxamide] |  | 90.7%
NC(=O)c1cc(NC(=O)c2cc3cccnc3cc2N2CCCC(F)(F)CC2)ccc1F [Example 19, N-(3-carbamoyl-4-fluorophenyl)-7-(4,4-difluoroazepan-1-yl)quinoline-6-carboxamide] | 0.44% | 16.6%
NC(=O)c1cccc(NC(=O)c2cc3cc(F)c(F)cc3nc2N2CCCC(F)(F)CC2)c1 [Example 12, N-(3-carbamoylphenyl)-2-(4,4-difluoroazepan-1-yl)-6,7-difluoroquinoline-3-carboxamide] | 95.8% | 100%

More lines, now with the values ahead:

inhibition at 0.01 µM | inhibition at 0.1 µM | SMILES
15.4% | 49.9% | NC(=O)c1cc(NC(=O)c2nc3ccccc3cc2N2CCCC(F)(F)CC2)ccn1 [Example 15, N-(2-carbamoylpyridin-4-yl)-3-(4,4-difluoroazepan-1-yl) quinoline-2-carboxamide]
-3.14% | 21.5% | NC(=O)c1cc(NC(=O)c2cc3cccnc3cc2N2CCCC(F)(F)CC2)ccn1 [Example 18, N-(2-carbamoylpyridin-4-yl)-7-(4,4-difluoroazepan-1-yl)quinoline-6-carboxamide]
15.3% | 72.8% | NC(=O)c1cc(NC(=O)c2nc3ccccc3cc2N2CCCC(F)(F)CC2)ccc1F [Example 11, N-(3-carbamoyl-4-fluorophenyl)-3-(4,4-difluoroazepan-1-yl) quinoline-2-carboxamide]
19.5% | 81.1% | NC(=O)c1cc(NC(=O)c2nc3ccc(Cl)cc3cc2N2CCCC(F)(F)CC2)ccn1 [Example 20, N-(2-carbamoylpyridin-4-yl)-6-chloro-3-(4,4-difluoroazepan-1-yl)quinoline-2-carboxamide]
